Data published in PubChem BioAssay AID1259411 (Chemical Carcinogenesis Research Information System (CCRIS), 2018).
The source made the active and inactive calls. The rule behind the calls is not given here.

Test system: rodent carcinogenicity bioassays, tumor incidence
Assay: CCRIS carcinogenicity studies
In short: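 NCI-built, expert-reviewed records of carcinogenicity and related test outcomes (mutagenicity, tumor promotion/inhibition) compiled from published and report sources, historical span 1985-2011, not updated.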

SMILES: C[N+](=O)[O-]
- carcinogen call (Species: GUPPIE, Strain/Sex: FEMALE, Route: AQUARIUM WATER, Dose: 0, 10, 30, 70 MG/L FOR 16 MO (STUDY DURATION: 16 MO), Dose: 0, 10, 30, 70 MG/L FOR 16 MO (STUDY DURATION: 16 MO)): inactive; negative
- carcinogen call (Species: MEDAKA, Strain/Sex: FEMALE, Route: AQUARIUM WATER, Dose: 0, 10, 20, 40 MG/L FOR 13 MO (STUDY DURATION: 13 MO), Dose: 0, 10, 20, 40 MG/L FOR 13 MO (STUDY DURATION: 13 MO)): inactive; negative
- carcinogen call (Species: MEDAKA, Strain/Sex: MALE, Route: AQUARIUM WATER, Dose: 0, 10, 20, 40 MG/L FOR 13 MO (STUDY DURATION: 13 MO), Dose: 0, 10, 20, 40 MG/L FOR 13 MO (STUDY DURATION: 13 MO)): inactive; negative
- carcinogen call (Species: MOUSE, Strain/Sex: B6C3F1/FEMALE, Route: INHALATION, Dose: 0, 188, 375, 750 PPM 6 HR/D 5 D/WK FOR 103 WK (STUDY DURATION: 105 WK), Dose: 0, 188, 375, 750 PPM 6 HR/D 5 D/WK FOR 103 WK (STUDY DURATION: 105 WK), Tumor Site: Type of Lesion: HARDERIAN GLAND: ADENOMA, LIVER: HEPATOCELLULAR ADENOMA, LUNG: ALVEOLAR/BRONCHIOLAR ADENOMA, ALVEOLAR/BRONCHIOLAR CARCIN, Tumor Site: Type of Lesion: HARDERIAN GLAND: ADENOMA, LIVER: HEPATOCELLULAR ADENOMA, LUNG: ALVEOLAR/BRONCHIOLAR ADENOMA, ALVEOLAR/BRONCHIOLAR CARCIN): active; positive
- carcinogen call (Species: MOUSE, Strain/Sex: B6C3F1/MALE, Route: INHALATION, Dose: 0, 188, 375, 750 PPM 6 HR/D 5 D/WK FOR 103 WK (STUDY DURATION: 105 WK), Dose: 0, 188, 375, 750 PPM 6 HR/D 5 D/WK FOR 103 WK (STUDY DURATION: 105 WK), Tumor Site: Type of Lesion: HARDERIAN GLAND: CARCINOMA, ADENOMA, LUNG: ALVEOLAR/BRONCHIOLAR CARCINOMA): active; positive
- carcinogen call (Species: RAT, Strain/Sex: F344/FEMALE, Route: INHALATION, Dose: 0, 94, 188, 375 PPM 6 HR/D 5 D/WK FOR 103 WK (STUDY DURATION: 104 WK), Dose: 0, 94, 188, 375 PPM 6 HR/D 5 D/WK FOR 103 WK (STUDY DURATION: 104 WK), Tumor Site: Type of Lesion: MAMMARY GLAND: FIBROADENOMA, CARCINOMA): active; positive
- carcinogen call (Species: RAT, Strain/Sex: F344/MALE, Route: INHALATION, Dose: 0, 94, 188, 375 PPM 6 HR/D 5 D/WK FOR 103 WK (STUDY DURATION: 104 WK), Dose: 0, 94, 188, 375 PPM 6 HR/D 5 D/WK FOR 103 WK (STUDY DURATION: 104 WK)): inactive; negative
- carcinogen call (Species: RAT, Strain/Sex: LONG-EVANS/FEMALE, Route: INHALATION, Dose: 0, 100, 200 PPM 7 HR/D 5 D/WK FOR 2 YR (STUDY DURATION: 2 YR), Dose: 0, 100, 200 PPM 7 HR/D 5 D/WK FOR 2 YR (STUDY DURATION: 2 YR)): inactive; negative
- carcinogen call (Species: RAT, Strain/Sex: LONG-EVANS/MALE, Route: INHALATION, Dose: 0, 100, 200 PPM 7 HR/D 5 D/WK FOR 2 YR (STUDY DURATION: 2 YR), Dose: 0, 100, 200 PPM 7 HR/D 5 D/WK FOR 2 YR (STUDY DURATION: 2 YR)): inactive; negative

SMILES: Cc1cc(-c2ccc(N/N=C3\C=Cc4c(S(=O)(=O)O)cc(S(=O)(=O)O)c(N)c4C3=O)c(C)c2)ccc1N/N=C1\C=Cc2c(S(=O)(=O)O)cc(S(=O)(=O)O)c(N)c2C1=O
- carcinogen call (Species: RAT, Route: INTRAPERITONEAL, Tumor Site: Type of Lesion: LIVER): active; positive

SMILES: COP(=O)(OC)OC=C(Cl)Cl
- carcinogen call (Species: MOUSE, Strain/Sex: B6C3F1/FEMALE, Route: GAVAGE, Dose: 0, 20, 40 MG/KG IN CORN OIL 5 D/WK FOR 103 WK (STUDY DURATION: 104 WK), Dose: 0, 20, 40 MG/KG IN CORN OIL 5 D/WK FOR 103 WK (STUDY DURATION: 104 WK), Tumor Site: Type of Lesion: FORESTOMACH: CARCINOMA, SQUAMOUS CELL PAPILLOMA): active; positive
- carcinogen call (Species: MOUSE, Strain/Sex: B6C3F1/FEMALE, Route: GAVAGE, Dose: 0, 20, 40 MG/KG IN CORN OIL 5 D/WK FOR 103 WK (STUDY DURATION: 105 WK), Dose: 0, 20, 40 MG/KG IN CORN OIL 5 D/WK FOR 103 WK (STUDY DURATION: 105 WK), Tumor Site: Type of Lesion: FORESTOMACH: SQUAMOUS PAPILLOMA, SQUAMOUS CELL PAPILLOMA OR CARCINOMA): active; positive
- carcinogen call (Species: MOUSE, Strain/Sex: B6C3F1/FEMALE, Route: ORAL, Dose: 0, 317, 635 PPM IN DIET, TWA, Dose: 0, 317, 635 PPM IN DIET, TWA): inactive; negative
- carcinogen call (Species: MOUSE, Strain/Sex: B6C3F1/MALE, Route: GAVAGE, Dose: 0, 10, 20 MG/KG IN CORN OIL 5 D/WK FOR 103 WK (STUDY DURATION: 104 WK), Dose: 0, 10, 20 MG/KG IN CORN OIL 5 D/WK FOR 103 WK (STUDY DURATION: 104 WK), Tumor Site: Type of Lesion: FORESTOMACH: SQUAMOUS CELL PAPILLOMA): active; positive
- carcinogen call (Species: MOUSE, Strain/Sex: B6C3F1/MALE, Route: GAVAGE, Dose: 0, 10, 20 MG/KG IN CORN OIL 5 D/WK FOR 103 WK (STUDY DURATION: 105 WK), Dose: 0, 10, 20 MG/KG IN CORN OIL 5 D/WK FOR 103 WK (STUDY DURATION: 105 WK), Tumor Site: Type of Lesion: FORESTOMACH: SQUAMOUS PAPILLOMA): active; positive
- carcinogen call (Species: MOUSE, Strain/Sex: B6C3F1/MALE, Route: ORAL, Dose: 0, 317, 635 PPM IN DIET, TWA, Dose: 0, 317, 635 PPM IN DIET, TWA): inactive; negative
- carcinogen call (Species: RAT, Strain/Sex: BDIX/BLN/FEMALE, Route: INTRAGASTRIC, Dose: 0, 0.1 MG IN 0.2 ML WATER 2/WK FOR 60 WK (STUDY DURATION: 111 WK)): inactive; negative
- carcinogen call (Species: RAT, Strain/Sex: BDIX/BLN/FEMALE, Route: INTRAGASTRIC, Dose: 0, 0.1 MG IN 0.2 ML WATER 3/WK FOR 60 WK (STUDY DURATION: 111 WK)): inactive; negative
- carcinogen call (Species: RAT, Strain/Sex: BDIX/BLN/MALE, Route: INTRAGASTRIC, Dose: 0, 0.1 MG IN 0.2 ML WATER 2/WK FOR 60 WK (STUDY DURATION: 111 WK)): inactive; negative
- carcinogen call (Species: RAT, Strain/Sex: BDIX/BLN/MALE, Route: INTRAGASTRIC, Dose: 0, 0.1 MG IN 0.2 ML WATER 3/WK FOR 60 WK (STUDY DURATION: 111 WK)): inactive; negative
- carcinogen call (Species: RAT, Strain/Sex: F344/FEMALE, Route: GAVAGE, Dose: 0, 4, 8 MG/KG IN CORN OIL 5 D/WK FOR 103 WK (STUDY DURATION: 104 WK), Dose: 0, 4, 8 MG/KG IN CORN OIL 5 D/WK FOR 103 WK (STUDY DURATION: 104 WK), Tumor Site: Type of Lesion: PANCREAS: ACINAR CELL ADENOMA, HEMATOPOIETIC SYSTEM: MONONUCLEAR CELL LEUKEMIA, MAMMARY GLAND: FIBROADENOMA, CARCINOMA, Tumor Site: Type of Lesion: PANCREAS: ACINAR CELL ADENOMA, HEMATOPOIETIC SYSTEM: MONONUCLEAR CELL LEUKEMIA, MAMMARY GLAND: FIBROADENOMA, CARCINOMA): active; positive
- carcinogen call (Species: RAT, Strain/Sex: F344/FEMALE, Route: GAVAGE, Dose: 0, 4, 8 MG/KG IN CORN OIL 5 D/WK FOR 103 WK (STUDY DURATION: 105 WK), Dose: 0, 4, 8 MG/KG IN CORN OIL 5 D/WK FOR 103 WK (STUDY DURATION: 105 WK), Tumor Site: Type of Lesion: PANCREAS: ADENOMA, MAMMARY GLAND: FIBROADENOMA): equivocal
- carcinogen call (Species: RAT, Strain/Sex: F344/MALE, Route: GAVAGE, Dose: 0, 4, 8 MG/KG IN CORN OIL 5 D/WK FOR 103 WK (STUDY DURATION: 104 WK), Dose: 0, 4, 8 MG/KG IN CORN OIL 5 D/WK FOR 103 WK (STUDY DURATION: 104 WK), Tumor Site: Type of Lesion: PANCREAS: ACINAR CELL ADENOMA, HEMATOPOIETIC SYSTEM: MONONUCLEAR CELL LEUKEMIA): active; positive
- carcinogen call (Species: RAT, Strain/Sex: F344/MALE, Route: GAVAGE, Dose: 0, 4, 8 MG/KG IN CORN OIL 5 D/WK FOR 103 WK (STUDY DURATION: 105 WK), Dose: 0, 4, 8 MG/KG IN CORN OIL 5 D/WK FOR 103 WK (STUDY DURATION: 105 WK), Tumor Site: Type of Lesion: PANCREAS: ADENOMA, HEMATOPOIETIC SYSTEM: MONONUCLEAR CELL LEUKEMIA): active; positive
- carcinogen call (Species: RAT, Strain/Sex: OSBORNE-MENDEL/FEMALE, Route: ORAL, Dose: 0, 318, 635 PPM IN DIET, TWA, Dose: 0, 318, 635 PPM IN DIET, TWA): inactive; negative
- carcinogen call (Species: RAT, Strain/Sex: OSBORNE-MENDEL/MALE, Route: ORAL, Dose: 0, 150, 326 PPM IN DIET, TWA, Dose: 0, 150, 326 PPM IN DIET, TWA): inactive; negative
